Data set [1] has as its system serum cholesterol and serum triglyceride levels. In words: Testing of normal mice: hypolipidemic activity in CF1 mice. The conditions noted are these: for response vs control in vivo at 20 mg/kg/day: Mus musculus. The class given is in vivo, CF1 male mice. The protocol:
The following compounds were tested for their hypolpidemic activity in CF1 mice.
Compounds A-V as defined above, were suspended in an aqueous 1 percent carboxymethylcellulose (CMC) solution and homogenized. Each of the so prepared compounds were administered to a group of six CF1 male mice, each weighing approximately 25 grams, intraperitioneally for 16 days. Each of these compounds were provided in a dosage of 20 mg/kg/d ip. On Days 9 and 16 blood was obtained by tail vein bleeding. The blood serum so obtained was separated by centrifugation for three minutes. Serum cholesterol levels were determined by a modification of the Liebermann-Burchard reaction (Ness, Clin. Chim. Acta., Vol. 10, 229 [1964]). Serum triglyceride levels were determined on Day 16 by use of the Fisher, Hycel Triglyceride Test Kit.
In addition to the above-described treated mice, an untreated control group of six mice were similarly tested on Days 9 and 16 to determine their serum cholesterol and trigylceride blood levels. Based on the results obtained for the untreated control group, the percent control, based on serum cholesterol and serum triglyceride levels of the treated mice compared to the untreated mice, was obtained. Table 1 reports this percent control, including standard deviation, indicating the level of confidence of these numbers.

The next data set relates to serum lipoprotein. In words: Cholesterol content of serum lipoprotein of treated Sprague-Dawley rats. The class given is in vivo. The conditions noted are these: orally 14 days at 20 mg/kg/day. The source says: A test solution of Compounds A, F, J, M, N and O were suspended in an aqueous solution of 1% CMC, homogenized and administered orally to six Sprague-Dawley male rats, which each weighted approximately 350 grams. Administration of the compounds was by an intubation needle. The rats were each fed with 20 milligrams of Compounds A, F, J, M, N and O per kilogram of body weight per day for 14 days. Similarly, six Sprague-Dawley male rats of approximately the same weight (that used for testing F weighed approximately 160 grams) were fed similar volumes of the same aqueous 1% CMC solution without the active agents, also orally, administered by intubation needle. In addition, as a control, a similar group of six male Sprague-Dawley rats were untreated.
The cholesterol content of serum lipoprotein
of Sprague-Dawley Rats treated
orally for 14 days at 20 mg/kg/day

For data set [2], the system named is serum cholesterol and serum triglyceride levels. Nature of the data set: Testing of hyperlipidemic mice (atherogenic diet). The class given is in vivo, CF1 male mice. The conditions noted are these: hyperlipidemic CF1 mice, 20 mg/kg/d intraperitoneally, Day 12. The protocol: A group of six CF^1 male mice (about 25 g) were placed on a commercial diet (U.S. Biochemical Corporation Basal Atherogenic Test Diet) which produced a "hyperlipidemic" state. That is, the average serum cholesterol level in the group of treated mice was raised from 122 to 375 mg percent and triglyceride levels were raised from 137 to 367 mg/dL.

The nature of a further data set: in vivo. The conditions noted are these: mouse, ip.
The next data set has as its system plasma lipids. As to conditions: rats; cited from earlier work.
Setting [3] is: 216 h, normal CF1 mice, 20 mg/kg/d ip, Day 9, read-out: Serum Cholesterol, Day 9.
Where [4] appears, read: 384 h, normal CF1 mice, 20 mg/kg/d ip, Day 16, read-out: Serum Cholesterol, Day 16.
Setting [5] is: 384 h, normal CF1 mice, 20 mg/kg/d ip, Day 16, read-out: Serum Triglyceride, Day 16.
The mark [6] stands for this setting: normal CF1 mice, 20 mg/kg/d ip, Day 16.

Where two headings read alike, the source gives them in different places. Bounds are passed on as bounds.

Take `CCCCn1c(=O)[nH][nH]c1=O` [G, 4-(4-n-butyl)-1,2,4-triazolidine-3,5-dione]: the response vs control in vivo at 20 mg/kg/day is 71 ± 6% in data set [1] (setting [3]), 69 ± 5% in data set [1] (setting [4]) and 79 ± 8% in data set [1] (setting [5]).
For `O=c1[nH][nH]c(=O)[nH]1` [Parent, 1,2,4-triazolidine-3,5-dione], in that order: 81%, 79% and 73%.
For `COc1ccc(-n2c(=O)n(C(=O)c3ccccc3)n(C(=O)c3ccccc3)c2=O)cc1` [Q, 4.(4-methoxyphenyl)-1,2-diphenylcarbonyl-1,2,4-triazolidine-3,5-dione], the response vs control in vivo at 20 mg/kg/day was 67% in data set [1] (setting [3]), 86% in data set [1] (setting [4]) and 75% in data set [1] (setting [5]).
For `CCOC(=O)c1nc(=O)n(-c2ccc(Cl)cc2)c(=O)[nH]1` [O, 3-(4-chlorophenyl)-6-ethoxycarbonyl-1,3,5-triazine-2,4(1 --H,3 --H)-dione], in that order: 63 ± 4%, 57 ± 4% and 55 ± 6%.
The matching figures for `Cn1c(=O)[nH][nH]c1=O` [K, 4-methyl-1,2,4-triazolidine-3,5-dione]: 88 ± 6%, 67 ± 5% and 89 ± 5%.
The matching figures for `CCCCCC(=O)n1[nH]c(=O)n(-c2ccc(Cl)cc2)c1=O` [V, 4-(4-chlorophenyl)1-pentylcarbonyl (2 --H)-1,2,4-triazolidine-3,5 dione]: 77%, 52% and 42%.
Take `O=c1[nH][nH]c(=O)n1-c1ccccc1` [E, 4-phenyl-1,2,4-triazolidine-3,5-dione]: the response vs control in vivo at 20 mg/kg/day turned out to be 71 ± 5% in data set [1] (setting [3]), 48 ± 3% in data set [1] (setting [4]) and 68 ± 6% in data set [1] (setting [5]).
For `CCC(=O)n1c(=O)n(-c2ccc(OC)cc2)c(=O)n1C(=O)CC` [R, 4.(4-methoxyphenyl)-1,2 diethylcarbonyl-1,2,4-triazolidine-3,5-dione], in that order: 62%, 63% and 62%.
Turning to `CC(=O)n1c(=O)n(-c2ccc(Cl)cc2)c(=O)n1C(C)=O` [U, 4-(4-chlorophenyl)-1,2-dimethylcarbonyl-1,2,4-triazolidine-3,5-dione], the response vs control in vivo at 20 mg/kg/day in data set [1] (setting [3]) came out at 72%; in data set [1] (setting [4]), 51%; in data set [1] (setting [5]) it was 51%.
For `CCC(=O)n1c(=O)n(-c2ccc([N+](=O)[O-])cc2)c(=O)n1C(=O)CC` [Compound S, 4-(4-nitrophenyl)-1,2 diethylcarbonyl-1,2,4-triazolidine-3,5-dione], the figures for the response vs control in vivo at 20 mg/kg/day in data set [1] (setting [3]), in data set [1] (setting [4]) and in data set [1] (setting [5]) were 72%, 36% and 62%, respectively.
With “4-(4- -n-butyl)-1,2 dipentylcarbonyl-1,2,4-triazolidine-3,5-dione”, the “Serum Cholesterol, Day 9” value in data set [1] (normal CF1 mice, 20 mg/kg/d ip, Day 9) came to 69 percent control. For the same compound, in data set [1] (setting [6]), the “Serum Cholesterol, Day 16” value worked out at 49 percent control and the “Serum Triglyceride, Day 16” value came out at 53 percent control.
With `CCOC(=O)C1n2c(=O)n(-c3ccc(Cl)cc3)c(=O)n21` [L, 3-(4-chlorophenyl)-6-ethoxyacarbonyl-1,3,5-triazabicyclo[3.1.0]hexane-2,4-dione], the response vs control in vivo at 20 mg/kg/day in data set [1] (ip, 216 h, read-out: Serum Cholesterol, Day 9) turned out to be 74 ± 3%; in data set [1] (ip, 384 h, read-out: Serum Cholesterol, Day 16) it was 56 ± 5%; in data set [1] (ip, 384 h, read-out: Serum Triglyceride, Day 16) it was 66 ± 7%.
Consider `CCOC(=O)c1nc(=O)n(-c2ccccc2)c(=O)[nH]1` [Compound N, 3-phenyl-6-ethoxycarbonyl-1,3,5-triazine-2,4(1 --H,3 --H)-dione], for which, in the data set on serum lipoprotein, the VLDL cholesterol is 50% of Control. Further, the “Serum Cholesterol” value in data set [2] is listed as 50% of Control. The “Serum Triglyceride” value in data set [2] is 46% of Control. In addition, the figures for the response vs control in vivo at 20 mg/kg/day in data set [1] (setting [3]), in data set [1] (setting [4]) and in data set [1] (setting [5]) were 63 ± 6%, 54 ± 5% and 51 ± 2%, respectively.
On to `CC(=O)n1c(=O)n(-c2ccccc2)c(=O)n1C(C)=O` [B, 4-phenyl-1,2-dimethylcarbonyl-1,2,4-triazolidine-3,5-dione], for which the results for the response vs control in vivo at 20 mg/kg/day in data set [1] (setting [3]), in data set [1] (setting [4]) and in data set [1] (setting [5]) were 70 ± 6%, 64 ± 5% and 61 ± 5%, respectively.
For `O=c1[nH][nH]c(=O)n1-c1ccc([N+](=O)[O-])cc1` [H, 4-(4-nitrophenyl)-1,2,4-triazolidine-3,5-dione], in that order: 73 ± 5%, 66 ± 5% and 47 ± 5%.
The matching figures for `COc1ccc(-n2c(=O)n(C(C)=O)n(C(C)=O)c2=O)cc1` [P, 4(4-methoxyphenyl)-1,2-dimethylcarbonyl-1,2,4-triazolidine-3,5-dione]: 76%, 57% and 49%.
The matching figures for `COc1ccc(-n2c(=O)[nH][nH]c2=O)cc1` [F, 4-(4-methoxyphenyl)-1,2,4-triazolidine-3,5-dione]: 75 ± 5%, 56 ± 4% and 58 ± 3%.
For orientation: LD50 means the dose expected to kill half of the subjects tested. Higher therefore signals a less toxic substance. As for `CC(=O)n1[nH]c(=O)n(-c2ccccc2)c1=O` [A, 4-phenyl-1-methylcarbonyl-1,2,4-triazolidine-3,5-dione], in “in vivo”, the LD50 is > 500 mg/kg. For the same compound, in data set [2], the “Serum Cholesterol” value is given as 41% of Control. For the same compound, in data set [2], the “Serum Triglyceride” value is reported as 40% of Control. The response vs control in vivo at 20 mg/kg/day in data set [1] (setting [3]) worked out at 67 ± 5%; in data set [1] (setting [4]), 61 ± 6%; in data set [1] (setting [5]) it was 48 ± 6%.
In the case of `O=c1[nH][nH]c(=O)n1-c1ccc(Cl)cc1` [J, 4-(4-chlorophenyl)-1,2,4-triazolidine-3,5-dione], the LD50 in the data set “in vivo” is > 500 mg/kg. Besides, the “Serum Cholesterol” value in data set [2] is 46% of Control. The “Serum Triglyceride” value in data set [2] is given as 49% of Control. The response vs control in vivo at 20 mg/kg/day was 90 ± 5% in data set [1] (setting [3]), 58 ± 4% in data set [1] (setting [4]) and 43 ± 4% in data set [1] (setting [5]).
In the case of `O=C(O)c1cc(=O)[nH]c(=O)[nH]1` [Orotic acid], the “plasma lipids blood level” value with plasma lipids is “decrease the plasma lipids blood level in rats”.
As to `CCOC(=O)n1[nH]c(=O)n(-c2ccccc2)c1=O` [C, 4-phenyl-1-ethoxycarbonyl-1,2,4-triazolidine-3,5-dione], the response vs control in vivo at 20 mg/kg/day was 73 ± 7% in data set [1] (setting [3]), 69 ± 5% in data set [1] (setting [4]) and 62 ± 6% in data set [1] (setting [5]).
The matching figures for `CC(=O)n1[nH]c(=O)n(-c2ccc(Cl)cc2)c1=O` [Compound D, 4-(4-chlorophenyl)-1-methylcarbonyl-1,2,4-triazolidine-3,5-dione]: 73 ± 4%, 64 ± 6% and 55 ± 7%.

The values are drawn from patent publication US4866058A, “Method for control of hyperlipidemia” (priority 1988, dated 1989).
